Molecules are shown by their SMILES. Bounds are passed on as bounds.

As usually defined, the melting point is the temperature, or range, at which the solid turns liquid. Regarding `CCCn1c(COCC)nc2c(N)nc3cc(OCCN4CCOCC4)ccc3c21`, the melting point was 191 to 192 °C.
For `CC(C)(C)OC(=O)NCC1CCc2cc(C=O)ccc2C1` (stereo not given) the value was 115 °C.
On to `CC1(C)Oc2ccc(C#N)cc2[C@@H](NC=O)[C@@H]1OC=O` (relative stereo), for which the melting point lay in the range of 171 to 172 °C.
For the compound `CCO[C@H]1C(C(=O)NCc2ccc(Cl)cc2)=C(C)OC(OCC)(OCC)[C@H]1C` (relative stereo), the melting point was 97 to 100 °C.
For `CC(C)N(C[C@@H]1CCC[C@H](CN(C(=O)Nc2ccc(N(C)C)cc2)C(C)C)C1)C(=O)Nc1ccc(N(C)C)cc1` the value was 139 to 141 °C; for `Cc1csc(NC(=O)C(C(=O)OC(C)C)=C2SCCS2)n1`, 161 to 162 °C; for `CC(C)(C)NC(=O)c1nn(-c2ccc(F)cc2F)c2c1CC1CC2C1(C)C` (stereo not given), 168 to 171 °C.
Regarding `O=C1NCCc2oc3ccccc3c21`, the melting point was 158 to 161 °C.
As for `Cc1cc(-c2cccc(S(F)(F)(F)(F)F)c2)c(S(C)(=O)=O)cc1C(=O)NC(=N)N`, the figure is 169 to 175 °C; as for `CCCNC(=O)C1(CCCCCSc2nc3ccc(OCC)cc3s2)c2ccccc2-c2ccccc21`, 54 to 56 °C.
As for `CC=NN(C)C1=NOCc2ccc(Cl)cc21`, the figure is 111 to 112 °C.
Take `COC(C)(C)C(=O)COc1ccc(Cl)cc1Cl`: the melting point was 45.5 to 47.5 °C.
`O=C(O)c1ccc(CN(C2CCCCC2)S(=O)(=O)c2ccc(F)cc2)cc1` yielded a melting point of 218 to 220 °C.
As for `CC(C)(C)c1cc(CCc2ccccc2NC(=O)N2CCOCC2)cc(C(C)(C)C)c1O`, the figure is 186 to 189 °C.
As for `N#Cc1ccc(OCC(NNC(=O)Nc2ccc(OC(F)(F)F)cc2)c2ccccc2)cc1` (stereo not given), the melting point amounted to 176 °C.
`COc1ccc2c(c1)c(CC(C)NC(=O)C(F)(F)F)c1n2CCC1` (racemic) displayed a melting point of 131 to 133 °C.
As for `Cc1cc(N2CCC(CN3CCN(S(=O)(=O)c4ccc(Cl)cc4)CC3)CC2)nc(C)n1`, the figure is 73 to 74 °C; as for `CCSc1ccc2c3c(cccc13)C(=O)N2`, 144 to 146 °C; as for `Nc1n[nH]c(SCCCO)n1`, 136 to 137 °C.
For `Cc1ccc(-c2c(NS(=O)(=O)c3ccc(C(C)(C)C)cc3)ncnc2OCCOc2ccc(NC(=O)c3ccccc3)cn2)cc1` the value was 173 to 174 °C; for `CCCS(=O)(=O)N(COC)C(=O)c1nc(OC)cc(OC)n1`, 59 to 62 °C; for `CCCNC(=O)Nc1ccc(-c2cn3c(n2)C(OC2CCN(C)CC2)c2ccccc2CC3)cc1` (stereo not given), 130 °C.
For `Cc1cc(NC2=NCCN2)n(CCC(C)C)n1` the value was 104 to 106 °C; for `N#CCc1cccc(Cc2nc3c(F)c(F)cc(F)c3s2)c1Cl`, 148 to 151 °C; for `NC(=O)NN=Cc1ccc(Oc2ccc3c(c2)CCCC3)cc1`, 202 to 204 °C.
`CCOC(=O)C1CCC(=O)C(Sc2ccc(C)cc2)C1` (stereo not given) returned a melting point of 87 to 89 °C.
As for `Cc1nc2cc(N)ccc2c(=O)n1C1CCC(=O)NC1=O` (stereo not given), the figure is 305 to 307 °C; as for `COc1cc2c(cc1OC)CN(CCCCc1ccc(NC(=O)c3ccc4ccccc4c3)cc1)CC2`, 165 to 167 °C; as for `COC(=O)c1cc(Cn2cncc2C)cc(C(C)(C)C#N)c1`, 101 to 104 °C.
As for `COC(=O)NCC1=C(n2ccccc2=O)c2cc([N+](=O)[O-])ccc2OC1(C)C`, the figure is 199 °C; as for `Cn1nnc2c(N3CCOCC3)nc(-c3ccc(NC(=O)Nc4cccs4)cc3)nc21`, 182 °C; as for `C[Si](C)(C)c1ccc(Cl)s1`, 68 to 69 °C.
In turn, `Cc1ccnc2c1N=C(n1ccnc1)c1cccnc1N2C1CC1` showed a melting point of 198 to 200 °C.
As for `CC(C)(C)OC(=O)NC(C)(C)c1ccc(-c2nc(Nc3ccc(-n4ccnc4)cc3)ncc2Cl)cc1`, the figure is 218 to 220 °C; as for `CCc1nc2c(n1C(CC)CC)C(=O)N(C)CN2c1ccc(Cl)cc1Cl`, 132 to 133 °C.
`COC(=O)CCCc1cc2nc(Cl)ccc2n1S(=O)(=O)c1ccc(F)c([N+](=O)[O-])c1` showed a melting point of 129 to 131 °C.
As for `Clc1ccc2nc(Cl)nc(-c3ccccc3Cl)c2c1`, the figure is 175 to 176 °C; as for `CN1CCN(Cc2cc3c(cc2F)-c2[nH]nc(-c4ccsc4)c2C3)CC1`, 115 to 118 °C; as for `COC(=O)C(C)(C)OCc1cc2cc(C(F)(F)F)ccc2n1S(=O)(=O)c1cc(OC)ccc1OC`, 130 to 132 °C.
As for `O=C(O)C(Cc1ccccc1)Oc1c(Br)cc(-c2ccc(-c3c(Cc4ccccc4)oc4ccccc34)cc2)cc1Br` (stereo not given), the figure is 90 to 92 °C; as for `CCOC(=O)c1cn(C)c2cc(C)sc2c1=O`, 143 to 144 °C; as for `O=C(NC1CCC(c2cc(Nc3cccc(C(F)(F)F)c3)n[nH]2)C1)c1ccccn1` (stereo not given), 162 °C.
On to `CCOC(=O)c1cn2c(ccc3ccc(Cl)cc32)n1`, for which the melting point was 221 to 222 °C.
For `N#Cc1cc(NC(=O)c2ccn(-c3ccc(F)cc3)c2)ccc1N1CCN(C2CCOCC2)CC1` the value was 240 °C; for `COc1ncc(Cl)cc1C1(O)CCN(CC23CC(c4ccccc42)c2ccccc23)CC1`, 195 °C.
On to `CC1(C)OC(=S)Nc2ccc(-c3cccc(Cl)c3)cc21`, for which the melting point lay within 183 to 184 °C.
As for `CCOC(=O)Cc1sc(Sc2cc(C(=O)OCC)nc3c(OC)cccc23)nc1C`, the figure is 120 to 121 °C; as for `O=C(c1cc2cccc(NS(=O)(=O)c3cccs3)c2[nH]1)N1CCCC1`, 248 to 249 °C.
In the case of `COc1ccc(C2(C#Cc3cccc(-c4nnc(C)s4)c3)CCC(O)CC2)cc1OC1CCCC1` (stereo not given), the melting point lay within 129 to 130 °C.
As for `CC1=C(C(=O)OC(C)C)C(c2cccc([N+](=O)[O-])c2)n2c(n[nH]c2=O)N1` (stereo not given), the figure is 225 to 227 °C; as for `CCOC(=O)c1cc2cc(OC(F)(F)F)cc(NS(=O)(=O)c3cccs3)c2[nH]1`, 192 to 193 °C; as for `O=C(O)c1cccc2c1[nH]c1ccc(F)cc12`, 254 °C.
For `CCCCC(=O)N(CCCCO)Cc1ccc(-c2ccccc2-c2nnn[nH]2)cc1` the value was 110 to 111 °C; for `N#Cc1ccc(-c2ccc(C#N)c(Cn3cncn3)c2)cc1`, 222 to 223 °C; for `CCOC(=O)c1cn(C)c2cnc3cc(F)c(N4CCCC(C)(C)C4)cc3c2c1=O`, 218 to 220 °C.
For `CC(=O)OC1CC2=CCC3C4CCC(C(C)CCCC(C)C)C4(C)CCC3C2(C)C(O)C1O` (stereo not given) the value was 131 to 133 °C.
With `CN(C#N)C(=O)CCCC(=O)N(C)C#N`, the melting point was in the range of 51.4 to 52.8 °C.
As for `Cc1ccc(C(C(=O)C(C)C)c2ccc(C)cc2)cc1`, the figure is 48 to 51 °C.
`Nc1nc2cc(Cl)c(Cl)cc2n1C1OC(CO)C(O)C1O` (stereo not given) returned a melting point of 145 °C.
For `Cc1cccc(Cl)c1N1Cc2cnc(Nc3ccccc3)nc2N(c2cccc(CCN)c2)C1=O` the value was 192 °C; for `C[C@H]1CCCC(C)(C)[C@@H]1[C@H](O)c1ccc(Cl)c(Cl)c1`, 94.2 to 96.2 °C.
As to `Nc1cc2cccnc2c(-c2cccc([N+](=O)[O-])c2)n1`, the melting point was in the range of 221 to 223 °C.
`COc1cc2c(cc1C(F)(F)F)N(C(=O)Nc1csc(-c3cnccn3)n1)CC2` displayed a melting point of more than 240 °C.
The compound `CC(C)(C#N)c1cc(CCl)cc(C(C)(C)C#N)c1` yielded a melting point of 119 to 121 °C.
Regarding `CCCCCCCCCCCCCCCCSCC(CN)Oc1ccon1` (stereo not given), the melting point was 73 to 74 °C.
Compound `CCOC(=O)c1c(N2CCN(C(=O)c3cccs3)CC2)c2cccnc2n(Cc2ccccc2F)c1=O` came in with a melting point of 105 to 110 °C.
In turn, `Cc1cc(C)cc(S(=O)(=O)c2cccc(N)c2C#N)c1` came in with a melting point of 208 to 209 °C.
As for `COc1ccc(OC)c(S(=O)(=O)NC(=O)C(C)Br)c1` (stereo not given), the figure is 116 to 118 °C.
Turning to `Cc1cccc(C)c1COc1cc(C(=O)N(C)C)cc2c1nc(C)n2C`, the melting point was determined as 180 °C.
As to `COc1ccc(C(F)(F)F)cc1N1CCN(CCCNC(=O)c2cccc3c(=O)c(C)c(-c4ccccc4)oc23)CC1`, the melting point lay within 173 to 176 °C.
In the case of `Cc1nc(Cn2c(=O)sc3cc(F)c(N=C=S)cc32)no1`, the melting point is 168 to 170 °C.
As for `CS(=O)(=O)c1cccc(C/C=C(/F)CN2C(=O)c3ccccc3C2=O)c1`, the figure is 124 to 126 °C; as for `Cc1c(C(=O)NN2CCCCC2)nn(-c2ccc(Cl)cc2Cl)c1-c1ccc(Cl)cc1`, 148 °C; as for `CCCCc1ccc(Oc2ccc(C#CC(C)N(O)C(N)=O)o2)cc1` (stereo not given), 116 to 118 °C.
For `CNC(=NS(C)(=O)=O)NCCCCCc1nc(N)nc(NC(N)=NCC(F)(F)F)n1` the value was 131 to 133 °C; for `CCCCCCCCCCC(C)(C)NC(=O)Nc1cc(OC)cc(C(C)(C)C)c1OCOC`, 83 to 85 °C.
In turn, `CN(C)C=Nc1ccc(-n2ncnc2-c2ccccc2)cc1` came in with a melting point of 109 to 111 °C.
For `CC(C)c1noc(-c2ccccc2)c1-c1ccc(S(N)(=O)=O)cc1` the value was 205 °C.
As for `COC(=O)C1=C(C)NC(C)=C(S(=O)(=O)c2ccc(O)cc2)C1c1ccccc1Cl` (stereo not given), the figure is 223 to 225 °C; as for `CC1(c2nc(NC3CC3)nc(N3CCOCC3)n2)CC1`, 94 to 95 °C; as for `CCc1cc(C(=O)OC)n(C)n1`, 162 to 165 °C.
As for `CCc1nn(C2CCCC2)c2cc(C(=O)Nc3ccc(C(=O)O)cc3)ccc12`, the figure is 249 to 251 °C; as for `CC(C)(Cc1ccccc1)C(NC(=O)c1ccncc1)Nc1c(Nc2cccnc2)c(=O)c1=O` (stereo not given), 251 to 254 °C; as for `NS(=O)(=O)c1ccc(-n2nc(CF)cc2-c2ccccc2)cc1`, 162 to 163 °C.
In turn, `CCOc1ccc(C2=NNC(=O)CC2)cc1OCC` yielded a melting point of 142 to 143 °C.

The values are drawn from a melting point compilation (Tetko et al.; mined from patent text by program, amines drawn as free bases though some values may be those of a salt).
